Test results reported in paper PMC7449217, “The FDA-Approved Drug Nelfinavir Inhibits Lytic Cell-Free but Not Cell-Associated Nonlytic Transmission of Human Adenovirus” (Antimicrobial Agents and Chemotherapy, 2020).
Where a name gives a salt, the structure may show the parent alone. Read-outs that look alike come from different tables or passages of the source.

How the values were obtained:
HCE cells = format: cell-based; details: human
Experimental: (§1) Per 96-well plate, 15,000 A549 cells, 10,000 HeLa cells, 30,000 HBECs, 30,000 HCE cells, or 30,000 CMT-93 cells were seeded in 100 μl of the respective supplemented medium and allowed to settle for 1 h at room temperature (RT) prior to cell culture incubation at 37°C with 5% CO2 and 95% humidity. The following day, the medium was replaced with 50 μl of the respective virus stock dilution giving rise to 5 to 50 plaques per 96-well plate. Fifty microliters of nelfinavir to obtain a 0.1 to 50 μM final concentration or the DMSO solvent control was also added, both in supplemented medium. For each experiment, a noninfected, treated control was performed. For uphill plaque assays, the medium volume was increased to 150 μl with identical virus and drug concentrations. For wash-in/washout experiments, the virus was incubated on cells in supplemented medium for 1 h at 37°C, cells were washed with PBS, and a 100-μl drug dilution in supplemented medium was added. All experiments were performed in four technical replicates or as indicated. Cells were incubated under standard cell culture conditions. At the indicated times postinfection, the cells were fixed, and the nuclei were stained for 1 h at RT by the addition of 33 μl 16% (wt/vol) paraformaldehyde (PFA) and 4 μg/ml Hoechst 33342 (Sigma-Aldrich, St. Louis, MO, USA) in PBS. Cells were washed three times with PBS and stored in PBS supplemented with 0.02% N3 for infections with viruses harboring a GFP transgene. For wild-type (wt) viruses, cells were quenched in PBS supplemented with 50 mM NH4Cl, permeabilized using 0.2% (vol/vol) Triton X-100 in PBS, and blocked with 0.5% (wt/vol) bovine serum albumin (BSA) in PBS. Cells were incubated with 381.7 ng/ml mouse anti-HAdV hexon protein antibody (Mab8052; Sigma-Aldrich, St. Louis, MO, USA) and subsequently stained using 2 μg/ml goat anti-mouse-Alexa Fluor 594 (catalog number A21203 or A32742; Thermo Fisher Scientific, Waltham, MA, USA). Plates were imaged on either an IXM-XL or an IXM-C automated high-throughput fluorescence microscope (Molecular Devices, San Jose, CA, USA) using a 4× objective in wide-field mode. Hoechst staining was recorded in the 4′,6-diamidino-2-phenylindole (DAPI) channel, the fluorescein isothiocyanate (FITC)/GFP channel was acquired for viral GFP, and the tetramethyl rhodamine isothiocyanate (TRITC)/Texas Red channel was acquired for hexon immunofluorescence staining.
(§2) The infection phenotype for each well was quantified using Plaque2.0 ([101]). The number of plaques was determined based on the infection signal (viral GFP or hexon immunofluorescence staining). Nuclei stained with Hoechst were segmented by using CellProfiler ([178]). Infected nuclei were classified based on the median infection signal per nucleus in CellProfiler. Data were plotted, and the EC50 (infected and treated cells), the TC50 (noninfected, treated cells), as well as the corresponding standard errors (SE) were determined using curve fitting in GraphPad (version 8.1.2; GraphPad Software, Inc.) using three-parameter inhibitor concentration-versus-response nonlinear regression. The mean TI50 was calculated as the […] ratio of the means. The TI50 SE was calculated by error propagation.

HeLa cells = format: cell-based; details: human
Experimental: as §1, §2

HBEC = format: cell-based; details: human
Experimental: as §1, §2

HAdV-C2-dE3B-GFP = test: fluorescence-based plaque-forming assay, HeLa cells; format: cell-based, human adenovirus; details: for TI50 (TC50/IC50): HAdV-C2-dE3B-GFP in HeLa, 4 dpi, GFP
Experimental: as §1, §2

HAdV-C2-dE3B-GFP-dADP = test: as above; format: cell-based, human adenovirus; details: for TI50 (TC50/IC50): HAdV-C2-dE3B-GFP-dADP in HeLa, 5 dpi, GFP
Experimental: as §1, §2

MAdV-1-pIX-FS2A-GFP = test: fluorescence-based plaque-forming assay, CMT-93 cells; format: cell-based, mouse adenovirus 1
Experimental: Per 96-well plate, 15,000 A549 cells, 10,000 HeLa cells, 30,000 HBECs, 30,000 HCE cells, or 30,000 CMT-93 cells were seeded in 100 μl of the respective supplemented medium and allowed to settle for 1 h at room temperature (RT) prior to cell culture incubation at 37°C with 5% CO2 and 95% humidity. The following day, the medium was replaced with 50 μl of the respective virus stock dilution giving rise to 5 to 50 plaques per 96-well plate. Fifty microliters of nelfinavir to obtain a 0.1 to 50 μM final concentration or the DMSO solvent control was also added, both in supplemented medium. For each experiment, a noninfected, treated control was performed. […] Plates were imaged on either an IXM-XL or an IXM-C automated high-throughput fluorescence microscope (Molecular Devices, San Jose, CA, USA) using a 4× objective in wide-field mode. Hoechst staining was recorded in the 4′,6-diamidino-2-phenylindole (DAPI) channel, the fluorescein isothiocyanate (FITC)/GFP channel was acquired for viral GFP, and the tetramethyl rhodamine isothiocyanate (TRITC)/Texas Red channel was acquired for hexon immunofluorescence staining.
The infection phenotype for each well was quantified using Plaque2.0 ([101]). The number of plaques was determined based on the infection signal (viral GFP or hexon immunofluorescence staining). […] The mean TI50 was calculated as the EC50/TC50 ratio of the means. […]

HAdV-B16 = test: fluorescence-based plaque-forming assay, A549 cells; format: cell-based, human adenovirus
Experimental: as §1, §2

HAdV-C1 = test: as above; format: cell-based, human adenovirus
Experimental: as §1, §2

HAdV-C6 = test: as above; format: cell-based, human adenovirus
Experimental: as §1, §2

HAdV-C2 = test: as above; format: cell-based, human adenovirus
Experimental: as §1, §2

uninfected A549 cells = test: cellular impedance measurement (xCELLigence), nelfinavir toxicity; format: cell-based, human
Experimental: Impedance-based assays were performed using the xCELLigence system (Roche Applied Science and ACEA Biosciences) as described previously ([152], [153]), according to the manufacturer’s instructions ([177]), in a cell culture environment (37°C, 5% CO2, and 95% humidity) in duplicates. The 16-well E plates have a gold-plated sensor array embedded in their glass bottom by which the electrical impedance across each well bottom is measured. The impedance per well, termed the cell index (CI), is recorded as a dimensionless quantity. The background CI was assessed following the addition of 50 μl supplemented medium to each well and equilibration in the incubation environment. After 30 min of equilibration, 9,000 A549 cells in 50 μl supplemented medium were added per well, and measurement was started.
For the quantification of nelfinavir toxicity, 50 μl of the supernatant was removed 18 h later and replaced with 2-fold-concentrated nelfinavir or DMSO solvent as the control dilution in supplemented medium (final nelfinavir concentration of 0.4 to 100 μM in 100 μl/well). The control was supplemented medium. Impedance was recorded every 15 min over 5 days. The TC50 indicates the concentration of nelfinavir that caused a 50% impedance reduction compared to the solvent-treated cells. The TC50 was calculated by nonlinear regression of the solvent-normalized CI over the concentration of nelfinavir.

HIV aspartyl protease = system: HIV aspartyl protease; design: method as in PMID 9397180, PMID 9725550; details: cited from earlier work

Cc1c(O)cccc1C(=O)N[C@@H](CSc1ccccc1)[C@H](O)CN1C[C@H]2CCCC[C@H]2C[C@H]1C(=O)NC(C)(C)C [Nelfinavir, Nelfinavir mesylate]
TC50 (HCE cells; 5 days): 29.73 µM | TC50 (HCE cells; 8 days): 19.59 µM | TC50 (HeLa cells; 4 days): 29.85 µM | TC50 (HeLa cells; 5 days): 41.69 µM | TC50 (HBEC; 6 days): 13.33 µM | TC50 (HBEC; 8 days): 12.74 µM | TI50 (TC50/IC50) (HAdV-C2-dE3B-GFP): 61.03 | TI50 (TC50/IC50) (HAdV-C2-dE3B-GFP; listed as nelfinavir): 61.0 | EC50 (HAdV-C2-dE3B-GFP; Human adenovirus sp., HeLa): 0.49 µM | TI50 (TC50/IC50) (HAdV-C2-dE3B-GFP-dADP): 8.91 | TI50 (TC50/IC50) (HAdV-C2-dE3B-GFP-dADP; listed as nelfinavir): 8.9 | EC50 (HAdV-C2-dE3B-GFP-dADP; Human adenovirus sp., HeLa): 4.68 µM | TI50 (TC50/IC50) (MAdV-1-pIX-FS2A-GFP; MAdV-1-pIX-FS2A-GFP in CMT-93, 4 dpi, GFP): 1.03 | EC50 (MAdV-1-pIX-FS2A-GFP; Murine mastadenovirus A, CMT93): 20.7 µM | TI50 (TC50/IC50) (HAdV-B16; HAdV-B16 in A549, 4 dpi, Hexon): 1.66 | EC50 (HAdV-B16; Human adenovirus sp., HAdV-B16 in A549, fixation 4 dpi, read-out Hexon, plaque numbers): 12.3 µM | TI50 (TC50/IC50) (HAdV-C1; HAdV-C1 in A549, 4 dpi, Hexon): 12.22 | EC50 (HAdV-C1; Human adenovirus sp., HAdV-C1 in A549, fixation 4 dpi, read-out Hexon, plaque numbers): 1.94 µM | TI50 (TC50/IC50) (HAdV-C6; HAdV-C6 in A549, 3 dpi, Hexon): 35.14 | EC50 (HAdV-C6; Human adenovirus sp., HAdV-C6 in A549, fixation 3 dpi, read-out Hexon, plaque numbers): 0.6 µM | TI50 (TC50/IC50) (HAdV-C2; HAdV-C2 in A549, 4 dpi, Hexon): 71.09 | EC50 (HAdV-C2; Human adenovirus sp., HAdV-C2 in A549, fixation 4 dpi, read-out Hexon, plaque numbers): 0.24 µM | toxicity in cell index (CI) profiles (uninfected A549 cells; uninfected A549, up to 6.25 µM, more than 4 days of incubation): little signs of toxicity | median toxicity TC50 (cell impedance) (uninfected A549 cells; uninfected A549 cells, incubation up to 115 h, xCELLigence): 25.7 µM | inhibitory concentration (HIV aspartyl protease): low-nanomolar range
